Measurements as given in patent US11667636B2, “Modulators of Mas-related G-protein receptor X2 and related products and methods” (Escient Pharmaceuticals, Inc., priority 2020, dated 2023).
pIC50: −log10 of the molar value.

molecular target: T1, human MRGPRX2 (Homo sapiens, UniProt Q96LB1); assay: MRGPRX2 Activity: IP-One HTRF antagonist assay in CHO cells stably expressing human MRGPRX2, versus Cortistatin-14; assay type: cell-based; conditions: versus 0.3 uM Cortistatin-14 agonist, IP-1 HTRF, read-out: MRGPR2 Antagonist Activity
T1 construct: expressed in transfected cells
T1 sequence (Q96LB1 1-330): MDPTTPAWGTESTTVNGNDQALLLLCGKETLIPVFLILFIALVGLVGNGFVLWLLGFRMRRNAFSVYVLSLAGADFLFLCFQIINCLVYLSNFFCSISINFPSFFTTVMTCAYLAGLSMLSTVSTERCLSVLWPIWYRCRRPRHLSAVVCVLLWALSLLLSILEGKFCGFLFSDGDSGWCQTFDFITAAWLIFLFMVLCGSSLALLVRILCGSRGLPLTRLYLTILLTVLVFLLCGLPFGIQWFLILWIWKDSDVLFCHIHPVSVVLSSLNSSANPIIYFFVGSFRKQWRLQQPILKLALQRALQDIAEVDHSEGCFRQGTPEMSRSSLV
Experimental: CHO cells stably transfected to express human MRGPRX2 were maintained in an incubator at 37° C. with 5% CO2 and grown in F12 (HAM) media with 10% fetal bovine serum (FBS), 1% Glutamax, 1% penicillin/streptomycin, 800 μg/mL Geneticin (G418), and 300 μg/mL Hygromycin B. Cells were plated in a 384-well assay plate at 20,000 cells per well in 12 μL of Opti-MEM and kept in an incubator overnight. On the day of the assay, compounds solubilized at 10 mM in DMSO were added as a 10-point curve (30 uM final top concentration with 1:3 serial dilutions) using a Tecan D300E digital dispenser. Agonists were diluted in assay buffer (final concentrations of 5.7 mM Tris-HCl, 43 mM NaCl, 50 mM LiCl, pH=8) and 2 μL of the agonist Cortistatin-14 (CPC Scientific, catalog CORT-002) are added to each well. Final concentrations of agonists were 0.3 μM Cortistatin-14. Final concentrations of DMSO were kept consistent across the plate. Plates were incubated in the dark for 1 hr at 37° C. and then for 1 hr at room temperature. IP-1 standards and HTRF detection reagents were added according to the IP-One-Gq Kit purchased from Cisbio (part number 62IPAPEJ) and incubated in the dark for 1 hr at room temperature. The plate was read on a Molecular Devices SpectraMax iD5 plate reader. The HTRF ratio was calculated from the raw data and graphed using GraphPad Prism to calculate an IC50 value for each compound.
The activity ranges are denoted as follows: “+++++” denotes antagonist activity <50 nM; “++++” denotes antagonist activity between 51 and 100 nM; “+++” denotes activity between 101 and 500 nM; “++” denotes activity between 501 and 1000 nM; and “+” denotes activity >1000 nM

| pIC50 | SMILES |
| --- | --- |
| 7.00 to 7.29 | COc1cccc2cc(C(=O)N[C@H]3CC[C@@H](Nc4cccc5nc(C(F)(F)F)cn45)CC3)oc12 [2-166] |
| 7.00 to 7.29 | COc1ccc(C(=O)N[C@H]2CC[C@@H](Nc3cccc4nc(C(F)(F)F)sc34)CC2)cc1 [1-22] |
| 6.30 to 7.00 | O=C(N[C@H]1CC[C@@H](Nc2cccc3nc(C(F)(F)F)cn23)CC1)c1cnn(CC(F)F)c1C(F)F [2-284] |
| 6.30 to 7.00 | CC(C)Oc1ccc(C(=O)N[C@H]2CC[C@@H](Nc3cccc4nc(C(F)(F)F)cn34)CC2)cc1Cl [2-207] |
| > 7.30 | O=C(N[C@H]1CC[C@@H](Nc2cccc3nc(C(F)(F)F)cn23)CC1)c1ccc(OCCF)cc1 [2-230] |
| > 7.30 | CC(C)n1cc(C(=O)N[C@H]2CC[C@@H](Nc3cccc4nc(C(F)(F)F)cn34)CC2)c(Cl)n1 [2-294] |
| > 7.30 | O=C(N[C@H]1CC[C@@H](Nc2cccc3nc(C(F)F)cn23)CC1)c1cn(C(F)F)nc1C(F)F [2-220] |
| 6.30 to 7.00 | CCn1nccc1C(=O)N[C@H]1CC[C@@H](Nc2cccc3sc(C(F)(F)F)cc23)CC1 [2-3] |
| 6.30 to 7.00 | O=C(N[C@H]1CC[C@@H](Nc2cccc3nc(C(F)F)cn23)CC1)c1cncs1 [2-147] |
| > 7.30 | O=C(N[C@H]1CC[C@@H](Nc2cccc3nc(C(F)(F)F)cn23)CC1)c1ccc2nccn2c1 [2-165] |
| 7.00 to 7.29 | CN(CC(F)F)c1cccc(C(=O)N[C@H]2CC[C@@H](Nc3cccc4nc(C(F)(F)F)cn34)CC2)c1 [2-14] |
| 6.30 to 7.00 | CC(=O)c1cc2c(N[C@H]3CC[C@@H](NC(=O)c4ccc(F)cc4)CC3)cccc2s1 [1-5] |
| 6.30 to 7.00 | O=C(N[C@H]1CC[C@@H](Nc2cccc3nc(C(F)(F)F)cn23)CC1)c1cncc2cn[nH]c12 [2-241] |
| > 7.30 | O=C(N[C@H]1CC[C@@H](Nc2cccc3nc(C(F)(F)F)cn23)CC1)c1ccn2cncc2c1 [2-163] |
| 7.00 to 7.29 | O=C(N[C@H]1CC[C@@H](Nc2cccc3nc(C(F)(F)F)sc23)CC1)c1ccc(F)cc1 [1-19] |
| 6.30 to 7.00 | O=C(N[C@H]1CC[C@@H](Nc2cccc3nc(C(F)F)cn23)CC1)c1nn2ccccc2c1NCC(F)F [2-269] |
| 6.30 to 7.00 | CCn1ncc(C(=O)N[C@H]2CC[C@@H](Nc3cccc4nc(C(F)(F)F)cn34)CC2)c1Cl [2-292] |
| > 7.30 | O=C(N[C@H]1CC[C@@H](Nc2cccc3nc(C(F)(F)F)cn23)CC1)c1ccc(-n2cnnn2)cc1 [2-202] |
| 6.30 to 7.00 | COc1cccc(C(=O)N[C@H]2CC[C@@H](Nc3cccc4nc(C#N)cn34)CC2)c1 [2-260] |
| 7.00 to 7.29 | O=C(N[C@H]1CC[C@@H](Nc2cccc3nc(C(F)F)cn23)CC1)c1ccc(C(F)F)cc1 [2-285] |
| 6.30 to 7.00 | Cn1cc(C(=O)N[C@H]2CC[C@@H](Nc3cccc4nc(C(F)F)cn34)CC2)c(C(F)F)n1 [2-286] |

| pIC50 | SMILES |
| --- | --- |
| > 7.30 | N#Cc1nn(C(F)F)cc1C(=O)N[C@H]1CC[C@@H](Nc2cccc3nc(C(F)(F)F)cn23)CC1 [2-229] |
| > 7.30 | O=C(N[C@H]1CC[C@@H](Nc2cccc3nc(C(F)(F)F)cn23)CC1)c1cn(CC(F)F)nc1Cl [Example 11, 3-chloro-1-(2,2-difluoroethyl)-N-((1 s,4s)-4-((2-(trifluoromethyl)imidazo[1,2-a]pyridin-5-yl)amino)cyclohexyl)-1H-pyrazole-4-carboxamide] |
| 6.30 to 7.00 | O=C(N[C@H]1CC[C@@H](Nc2cccc3nc(C(F)(F)F)cn23)CC1)c1ccncc1 [2-162] |
| > 7.30 | Cc1n[nH]cc1C(=O)N[C@H]1CC[C@@H](Nc2cccc3nc(C(F)(F)F)cn23)CC1 [2-138] |
| > 7.30 | O=C(N[C@H]1CC[C@@H](Nc2cccc3nc(C(F)(F)F)cn23)CC1)c1c[nH]c2ccccc12 [2-201] |
| 6.30 to 7.00 | CC(C#N)c1cccc(C(=O)N[C@H]2CC[C@@H](Nc3cccc4sc(C(F)(F)F)cc34)CC2)c1 (some centres unmarked) [2-5] |
| 6.30 to 7.00 | CNc1ccccc1C(=O)N[C@H]1CC[C@@H](Nc2cccc3nc(C#N)cn23)CC1 [2-262] |
| 6.30 to 7.00 | COc1ccc(C(=O)N[C@@H]2CCC[C@H](Nc3cccc4sc(C#N)cc34)C2)cc1 [1-16] |
| 6.30 to 7.00 | COc1ccc(C(=O)N[C@H]2CC[C@@H](Nc3cc(C)cc4nc(C(F)(F)F)cn34)CC2)cc1 [1-23] |
| < 6.00 | COc1ccc(C(=O)N[C@@H]2CCC[C@H](Nc3cccc4sc(OC)cc34)C2)cc1 [1-14] |
| > 7.30 | O=C(N[C@H]1CC[C@@H](Nc2cccc3nc(C(F)F)cn23)CC1)c1ccc(OCCF)cc1 [2-218] |
| 7.00 to 7.29 | COc1ccc(C(=O)N[C@@H]2CCC[C@H](Nc3cc(F)cc4nc(C(F)(F)F)cn34)C2)cc1 [1-31] |
| 6.30 to 7.00 | Cn1cc(C(=O)N[C@H]2CC[C@@H](Nc3cccc4nc(C(F)(F)F)cn34)CC2)nn1 [2-233] |
| < 6.00 | CCOCc1cc2c(N[C@H]3CCC[C@@H](NC(=O)c4ccc(OC)cc4)C3)cccc2s1 [1-3] |
| 7.00 to 7.29 | COc1ccc(C(=O)N[C@@H]2CCC[C@H](Nc3cc(Cl)cc4nc(C(F)(F)F)cn34)C2)cc1 [1-30] |
| > 7.30 | O=C(N[C@H]1CC[C@@H](Nc2cccc3nc(C(F)(F)F)cn23)CC1)c1ccnc2cn[nH]c12 [2-126] |
| > 7.30 | CN(CC(F)F)c1ccc(C(=O)N[C@H]2CC[C@@H](Nc3cccc4nc(C(F)F)cn34)CC2)cc1 [2-274] |
| 6.30 to 7.00 | O=C(N[C@H]1CC[C@@H](Nc2cccc3nc(C(F)(F)F)cn23)CC1)c1noc2ccccc12 [2-290] |
| > 7.30 | CN(CC(F)F)c1ccc(C(=O)N[C@H]2CC[C@@H](Nc3cccc4nc(C(F)(F)F)cn34)CC2)cc1 [2-181] |
| 7.00 to 7.29 | CN(C)c1ccc(C(=O)N[C@H]2CC[C@@H](Nc3cccc4nc(C(F)(F)F)cn34)CC2)c(F)c1 [2-159] |
| > 7.30 | Cc1nc2cccc(C(=O)N[C@H]3CC[C@@H](Nc4cccc5nc(C(F)(F)F)cn45)CC3)c2s1 [2-169] |

| pIC50 | SMILES |
| --- | --- |
| > 7.30 | O=C(N[C@H]1CC[C@@H](Nc2cccc3nc(C(F)(F)F)cn23)CC1)c1cn(CC(F)F)nc1C(F)F [Example 8, 1-(2,2-difluoroethyl)-3-(difluoromethyl)-N-[4-[[2-(trifluoromethyl)imidazo[1,2-a]pyridin-5-yl]amino]cyclohexyl]pyrazole-4-carboxamide] |
| > 7.30 | CNc1ccc(C(=O)N[C@H]2CC[C@@H](Nc3cccc4nc(C(F)F)cn34)CC2)cc1 [2-195] |
| > 7.30 | O=C(N[C@H]1CC[C@@H](Nc2cccc3nc(C(F)(F)F)cn23)CC1)c1ccc(C(F)F)cc1 [2-179] |
| > 7.30 | O=C(N[C@H]1CC[C@@H](Nc2cccc3nc(C(F)(F)F)cn23)CC1)c1c[nH]nc1Cl [2-176] |
| > 7.30 | Cn1cc(C(=O)NC2CCC(Nc3cccc4nc(C(F)(F)F)cn34)CC2)c2ccccc21 (centres unmarked) [2-289] |
| 7.00 to 7.29 | Cn1ncc(C(=O)N[C@H]2CC[C@@H](Nc3cccc4nc(C(F)F)cn34)CC2)c1NCC(F)F [2-270] |
| > 7.30 | O=C(N[C@H]1CC[C@@H](Nc2cccc3nc(C(F)F)cn23)CC1)c1ccnc2cn[nH]c12 [2-253] |
| > 7.30 | O=C(N[C@H]1CC[C@@H](Nc2cccc3nc(C(F)F)cn23)CC1)c1cccc2cn[nH]c12 [2-193] |
| > 7.30 | O=C(N[C@H]1CC[C@@H](Nc2cccc3nc(C(F)(F)F)cn23)CC1)c1ccnc2[nH]ccc12 [2-168] |
| > 7.30 | O=C(N[C@H]1CC[C@@H](Nc2cccc3nc(C(F)(F)F)cn23)CC1)c1ccc(NCC(F)(F)F)cc1 [2-23] |
| 6.30 to 7.00 | COc1ccc(C(=O)N[C@H]2CC[C@@H](Nc3cccc4nc(C(F)F)cn34)CC2)c(F)c1 [2-27] |
| > 7.30 | CN(C)c1ccc(C(=O)N[C@H]2CC[C@@H](Nc3cccc4nc(C(F)(F)F)cn34)CC2)cc1 [2-158] |
| 7.00 to 7.29 | O=C(N[C@H]1CC[C@@H](Nc2cccc3sc(C(F)(F)F)cc23)CC1)c1cc2ccccn2n1 [2-1] |
| 7.00 to 7.29 | COc1ccc(C(=O)N[C@H]2CC[C@@H](Nc3cccc4nn(C(F)(F)F)cc34)CC2)cc1 [1-21] |
| > 7.30 | O=C(N[C@H]1CC[C@@H](Nc2cccc3nc(C(F)F)cn23)CC1)c1ccnc(NCC(F)F)c1 [2-150] |
| 6.30 to 7.00 | Cc1c(C(=O)N[C@H]2CC[C@@H](Nc3cccc4nc(C(F)(F)F)cn34)CC2)c2ccccc2n1C [2-227] |
| < 6.00 | CC(=O)Nc1cccc(C(=O)N[C@H]2CC[C@@H](Nc3cccc4sc(C(F)(F)F)cc34)CC2)c1 [2-2] |
| 7.00 to 7.29 | CNc1ccccc1C(=O)N[C@H]1CC[C@@H](Nc2cccc3nc(C(F)F)cn23)CC1 [2-276] |
| 6.30 to 7.00 | O=C(N[C@H]1CC[C@@H](Nc2cccc3nc(C(F)(F)F)cn23)CC1)c1n[nH]c2ccccc12 [2-9] |
| > 7.30 | Cc1cc2c(C(=O)N[C@H]3CC[C@@H](Nc4cccc5nc(C(F)(F)F)cn45)CC3)cccc2n1C [2-198] |
